Measured values reported in ChEMBL document CHEMBL5352479, “Prenylated flavonoids with significant anti-hepatoma activity from Daphne giraldii and effects on Fibroblast Growth Factor Receptor 1 (FGFR1)” (Eur J Med Chem, 2023).

Experiments:
HepG2 = assay: Cytotoxicity against human HepG2 cells assessed as inhibition of cell proliferation incubated for 48 hrs by MTT assay; assay type: functional, cell-based; details: HepG2, 48 h
Hep 3B2 [1] = assay: Cytotoxicity against human Hep3B cells assessed as inhibition of cell proliferation incubated for 48 hrs by MTT assay; assay type: functional, cell-based
Hep 3B2 [2] = assay: Induction of apoptosis in human Hep3B cells assessed as necrotic cells at 3 uM incubated for 48 hrs by Annexin V-FITC/PI staining based flow cytometry analysis (reference value: 6.12%); assay type: functional
Hep 3B2 [3] = assay: Induction of apoptosis in human Hep3B cells assessed as late apoptotic cells at 3 uM incubated for 48 hrs by Annexin V-FITC/PI staining based flow cytometry analysis (reference value: […]%); assay type: functional
Hep 3B2 [4] = assay: Induction of apoptosis in human Hep3B cells assessed as viable cells at 3 uM incubated for 48 hrs by Annexin V-FITC/PI staining based flow cytometry analysis (reference value: 87.1%); assay type: functional; details: read-out: Activity
Hep 3B2 [5] = assay: Induction of apoptosis in human Hep3B cells assessed as early apoptotic cells at 3 uM incubated for 48 hrs by Annexin V-FITC/PI staining based flow cytometry analysis (reference value: 1.26%); assay type: functional
Hep 3B2 [6] = assay: Induction of apoptosis in human Hep3B cells assessed as necrotic cells at 3 uM incubated for 48 hrs by Annexin V-FITC/PI staining based flow cytometry analysis (reference value: 0%); assay type: functional
Hep 3B2 [7] = assay: Induction of apoptosis in human Hep3B cells assessed as late apoptotic cells at 3 uM incubated for 48 hrs by Annexin V-FITC/PI staining based flow cytometry analysis (reference value: 0.117%); assay type: functional
Hep 3B2 [8] = assay: Induction of apoptosis in human Hep3B cells assessed as early apoptotic cells at 3 uM incubated for 48 hrs by Annexin V-FITC/PI staining based flow cytometry analysis (reference value: 4.54%); assay type: functional
Hep 3B2 [9] = assay: Induction of apoptosis in human Hep3B cells assessed as viable cells at 3 uM incubated for 48 hrs by Annexin V-FITC/PI staining based flow cytometry analysis (reference value: 95.3%); assay type: functional; details: read-out: Activity

Compound	IC50 (HepG2)	IC50 (Hep 3B2 [1])	other results
COc1c(-c2cc3c(c(O)c2CC=C(C)C)OC(C)(C)C=C3)oc2c(CC=C(C)C)c(O)cc(O)c2c1=O	30.7 µM	6.37 µM	
COc1c(-c2ccc(O)c(CC=C(C)C)c2)oc2cc(O)cc(O)c2c1=O	50.5 µM	0.99 µM	Activity (Hep 3B2 [2]): 2.29%; Activity (Hep 3B2 [3]): 8.68%; viability at 3 µM (Hep 3B2 [4]): 87.1%; Activity (Hep 3B2 [5]): 1.97%
COc1c(-c2cc(O)c(O)c(CC=C(C)C)c2)oc2c3c(cc(O)c2c1=O)OC(C(C)(C)O)C3 (centres undefined)	> 50 µM	3.62 µM	
CC(C)=CCc1cc([C@@H]2Oc3c(CC=C(C)C)c(O)cc(O)c3C(=O)[C@H]2O)cc(CC=C(C)C)c1O	> 50 µM	> 50 µM	
COc1c(-c2ccc(O)c(O)c2)oc2c(CC=C(C)C)c(O)cc(O)c2c1=O	> 50 µM	2.39 µM	
CC1(C)C=Cc2cc(-c3oc4cc(O)cc(O)c4c(=O)c3O)cc(O)c2O1	> 50 µM	28.2 µM	
COc1c(-c2cc(O)c(O)c(CC=C(C)C)c2)oc2c(CC=C(C)C)c(O)cc(O)c2c1=O	32.6 µM	1.07 µM	Activity (Hep 3B2 [6]): 0.121%; Activity (Hep 3B2 [7]): 9.35%; Activity (Hep 3B2 [8]): 41.2%; viability at 3 µM (Hep 3B2 [9]): 49.3%
CC(C)=CCc1cc([C@H]2Oc3cc(O)ccc3C[C@H]2O)cc(CC=C(C)C)c1O	> 50 µM	> 50 µM	
CC(C)=CCc1cc([C@H]2Oc3c(CC=C(C)C)c(O)cc(O)c3C(=O)[C@@H]2O)cc(CC=C(C)C)c1O	> 50 µM	> 50 µM	
CC(C)=CCc1cc(-c2oc3cc(O)cc(O)c3c(=O)c2O)ccc1O [ISOLICOFLAVONOL]	44.7 µM	11.5 µM	
C=C(C)C(O)Cc1cc(-c2oc3c(CC=C(C)C)c(O)cc(O)c3c(=O)c2OC)ccc1O (centres undefined)	42.2 µM	0.41 µM	Activity (Hep 3B2 [2]): 0.923%; Activity (Hep 3B2 [3]): 19.7%; viability at 3 µM (Hep 3B2 [4]): 59.7%; Activity (Hep 3B2 [5]): 19.6%
COc1c(-c2cc(O)c3c(c2)CC(O)C(C)(C)O3)oc2c(CC=C(C)C)c(O)cc(O)c2c1=O (centres undefined)	49.1 µM	0.63 µM	Activity (Hep 3B2 [2]): 2.34%; Activity (Hep 3B2 [3]): 52.4%; viability at 3 µM (Hep 3B2 [4]): 23.3%; Activity (Hep 3B2 [5]): 21.9%
COc1c(-c2cc(O)c3c(c2)CC(C(C)(C)O)O3)oc2c(CC=C(C)C)c(O)cc(O)c2c1=O (centres undefined)	47.4 µM	0.49 µM	Activity (Hep 3B2 [2]): 2.55%; Activity (Hep 3B2 [3]): 48.2%; viability at 3 µM (Hep 3B2 [4]): 33.8%; Activity (Hep 3B2 [5]): 15.4%
CC1(C)Oc2ccc(-c3oc4cc(O)cc(O)c4c(=O)c3O)cc2CC1O (centres undefined)	> 50 µM	9.55 µM	
CC(C)=CCc1cc(-c2oc3c(CC=C(C)C)c(O)cc(O)c3c(=O)c2O)ccc1O [BROUSSOFLAVONOL F]	30.8 µM	1.15 µM	Activity (Hep 3B2 [6]): 0.251%; Activity (Hep 3B2 [7]): 25.5%; Activity (Hep 3B2 [8]): 19.1%; viability at 3 µM (Hep 3B2 [9]): 55.1%
COc1c(-c2ccc(O)c(O)c2)oc2c(CC=C(C)C)c(O)c(CC=C(C)C)c(O)c2c1=O	43.3 µM	17.7 µM	
C=C(C)C(O)Cc1cc(-c2oc3c(CC=C(C)C)c(O)cc(O)c3c(=O)c2OC)cc(O)c1O (centres undefined)	> 50 µM	1.05 µM	Activity (Hep 3B2 [2]): 2.75%; Activity (Hep 3B2 [3]): 76%; viability at 3 µM (Hep 3B2 [4]): 14.2%; Activity (Hep 3B2 [5]): 6.97%
CNC(=O)c1cc(Oc2ccc(NC(=O)Nc3ccc(Cl)c(C(F)(F)F)c3)cc2)ccn1 [SORAFENIB]		8.55 µM	
COc1c(-c2ccc(O)c(O)c2)oc2c3c(c(CC=C(C)C)c(O)c2c1=O)OC(C(C)(C)O)C3 (centres undefined)	26.9 µM	8.89 µM	
COC1=C(c2ccc(O)cc2)Oc2c(CC=C(C)C)c(O)cc(O)c2C1O (centres undefined)	13.6 µM	3.96 µM	
COc1c(-c2ccc(O)c(O)c2)oc2c(C/C=C(\C)CCC=C(C)C)c(O)cc(O)c2c1=O	30.4 µM	4.8 µM	
COc1c(-c2ccc(O)c(CC=C(C)C)c2)oc2c(CC=C(C)C)c(O)cc(O)c2c1=O	> 50 µM	2.31 µM	Activity (Hep 3B2 [6]): 0.097%; Activity (Hep 3B2 [7]): 10.7%; Activity (Hep 3B2 [8]): 37.4%; viability at 3 µM (Hep 3B2 [9]): 51.9%
COc1c(-c2cc(O)c(O)c(CC=C(C)C)c2CC=C(C)C)oc2cc(O)cc(O)c2c1=O	39.1 µM	33.5 µM	
C=C(C)C(O)Cc1c(O)c(CC=C(C)C)c2oc(-c3ccc(O)c(O)c3)c(OC)c(=O)c2c1O (centres undefined)	> 50 µM	37.1 µM	
